In patent publication US10391095B2, “DNA-PK inhibitors” (Vertex Pharmaceuticals Incorporated, priority 2012, dated 2019):

Target: DNA-PK (Homo sapiens, UniProt P78527)
Assay: DNA-PK inhibition assay (radiometric, 33P-ATP)
Type: biochemical
Conditions: 100 μM ATP, competitive tight-binding fit
Summary of the method: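 Approx. 6 nM DNA-PK with 10 µg/mL sheared dsDNA, 0.8 mg/mL peptide substrate and 100 µM 33P-ATP in HEPES pH 7.5, 10 mM MgCl2; 45 min, phosphoric acid quench. Phosphopeptide captured on filter plates and counted by scintillation; Ki from a competitive tight-binding model fit.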

Row | Structure (SMILES) | Ki
1 | Cc1ccc(-c2cc(NC[C@@H](C)c3ccccc3OC3CC3)ncn2)cn1 [Compound 107] | < 30 nM
2 | Cc1ccc(-c2cc(NCC(C)c3cccc4c3OCC(=O)N4)ncn2)cn1 (centres unmarked) [Compound 435] | < 30 nM
3 | COc1cc(N)ncc1C(C)CNc1cc(-c2ccc(N3CCN(C(C)=O)CC3)nc2)ncn1 (centres unmarked) [Compound 345] | < 30 nM
4 | CNC(=O)c1ccnc2c([C@H](C)CNc3cc(-c4cnc(N)nc4)ncn3)cccc12 [Compound 608] | < 30 nM
5 | CC(CNc1cc(-c2cnc3c(cnn3CCO)c2)ncn1)c1ccnc2cccnc12 (centres unmarked) [Compound 400] | < 30 nM
6 | COc1ccc(C(C)CNc2cc(-c3ccc(C)nc3)ncn2)c(OC)n1 (centres unmarked) [Compound 466] | < 30 nM
7 | CCOc1ccccc1C(C)CNc1cc(-c2ccc(C)nc2)ncn1 (centres unmarked) [Compound 91] | < 30 nM
8 | COc1sccc1C(C)CNc1cc(-c2cnc3c(cnn3C3CCN(C)CC3)c2)ncn1 (centres unmarked) [Compound 264] | < 30 nM
9 | COC(=O)c1ccc(OC)c(C(C)CNc2cc(-c3ccc(C)nc3)ncn2)c1 (centres unmarked) [Compound 250] | < 30 nM
10 | CNC(=O)c1ccc(C(C)CNc2cc(-c3ccc(OC(C)C)nc3)ncn2)c(OC)c1 (centres unmarked) [Compound 324] | < 30 nM
11 | Cc1ccc(-c2cc(NC[C@@H](C)c3cccc4c3OCCN4)ncn2)cn1 [Compound 513] | < 30 nM
12 | CNC(=O)c1ccc([C@H](C)CNc2cc(-c3ccc4c(cnn4CC4CC4)c3)ncn2)c(OC)c1 [Compound 294] | < 30 nM
13 | CCNc1ncc(-c2cc(NC[C@@H](C)c3ccc(C(=O)NC)cc3OC)ncn2)cn1 [Compound 585] | < 30 nM
14 | CNCCN(C)c1ccc(-c2cc(NC[C@@H](C)c3ccc(C(=O)NC)cc3OC)ncn2)cn1 [Compound 368] | < 30 nM
15 | COc1cc(N)ccc1C(C)CNc1cc(-c2ccc(C)nc2)ncn1 (centres unmarked) [Compound 178] | < 30 nM
16 | CC(CNc1cc(-c2cnc3c(cnn3C3CCN(C)CC3)c2)ncn1)c1cccc2cccnc12 (centres unmarked) [Compound 237] | < 30 nM
17 | CNC(=O)c1ccc([C@H](C)CNc2cc(-c3ccc(N(C)C4CCN(C)CC4)nc3)ncn2)c(OC)c1 [Compound 347] | < 30 nM
18 | CNC(=O)c1ccc(C(C)CNc2cc(-c3ccc(CCOC)cc3)ncn2)c(OC)c1 (centres unmarked) [Compound 340] | < 30 nM
19 | COc1cc(C(=O)NCC(F)F)ccc1[C@H](C)CNc1cc(-c2ccc(C)nc2)ncn1 [Compound 405] | < 30 nM

Row | Structure (SMILES) | Ki
20 | CNC(=O)c1ccc([C@H](C)CNc2cc(-c3cnc(NC)nc3)ncn2)c(OC)c1 [Compound 304] | < 30 nM
21 | C[C@H](CNc1cc(-c2cnc3c(cnn3C3CNC3)c2)ncn1)c1ccnc2c1OCCO2 [Compound 527] | < 30 nM
22 | Cc1ccc(-c2cc(NC[C@@H](C)c3ccccc3O)ncn2)cn1 [Compound 109] | < 30 nM
23 | CC(CNc1cc(-c2ccc(N3CCN(C)CC3)nc2)ncn1)c1cnccc1OC1CC1 (centres unmarked) [Compound 177] | < 30 nM
24 | COCCn1ncc2cc(-c3cc(NCC(C)c4ccccc4OC4COC4)ncn3)cnc21 (centres unmarked) [Compound 215] | < 30 nM
25 | CNCCNc1ccc(-c2cc(NC[C@@H](C)c3ccnc4c3OCC4)ncn2)cn1 [Compound 483] | < 30 nM
26 | COc1ccccc1[C@H](C)CNc1cc(-c2ccc(NCCO)nc2)ncn1 [Compound 118] | < 30 nM
27 | CNC(=O)c1ccc([C@H](C)CNc2cc(-c3ccc4c(cnn4C)c3)ncn2)c(OC)c1 [Compound 293] | < 30 nM
28 | CNC(=O)c1cc(C)nc2c([C@H](C)CNc3cc(-c4ccc(C)nc4)ncn3)cccc12 [Compound 484] | < 30 nM
29 | CNc1ncc(-c2cc(NC[C@@H](C)c3ccnc4c3OCCO4)ncn2)cn1 [Compound 462, (S)—N^6-(2-(2,3-dihydro-[1,4]dioxino[2,3-b]pyridin-8-yl)propyl)-N^2′-methyl-[4,5′-bipyrimidine]-2′,6-diamine] | < 30 nM
30 | CNC(=O)c1ccc([C@H](C)CNc2cc(-c3ccc(N4CC=CCC4)nc3)ncn2)c(OC)c1 [Compound 366] | < 30 nM
31 | CCCn1ccc2cc(-c3cc(NCCc4ccccc4OC)ncn3)cnc21 [Compound 36] | < 30 nM
32 | CC(CNc1cc(-c2cnc3c(cnn3CCO)c2)ncn1)c1cccc2nccnc12 (centres unmarked) [Compound 401] | < 30 nM
33 | C#CCNc1ccc(-c2cc(NC[C@@H](C)c3ccc(C(=O)NC)cc3OC)ncn2)cn1 [Compound 385] | < 30 nM
34 | Cc1ccc(-c2cc(NC[C@@H](C)c3cccc4c3OC(CO)C4)ncn2)cn1 (single isomer, unassigned) [Compound 538] | < 30 nM
35 | CNC(=O)c1ccc([C@H](C)CNc2cc(-c3cnc4c(cnn4CC(C)(C)O)c3)ncn2)c(OC)c1 [Compound 285] | < 30 nM
36 | C=C(CNc1cc(-c2ccc(C)nc2)ncn1)c1cccc2c(C(=O)NC)ccnc12 [Compound 467] | < 30 nM
37 | Cc1ccc(-c2cc(NCC(C)c3ccccc3OCCCO)ncn2)cn1 (centres unmarked) [Compound 182] | < 30 nM
38 | COc1cc(C(=O)Nc2ccccc2)ccc1C(C)CNc1cc(-c2ccc(C)nc2)ncn1 (centres unmarked) [Compound 377] | < 30 nM

Now from value to compound:

Row | Ki | Structure (SMILES)
39 | < 30 nM | CNC(=O)c1ccnc2c([C@H](C)CNc3cc(-c4ccc5c(c4)CN(C(C)=O)CC5)ncn3)cccc12 [Compound 804]
40 | < 30 nM | CNC(=O)c1ccnc2c([C@H](C)CNc3cc(-c4ccc(C#N)c(F)c4)ncn3)cccc12 [Compound 871]
41 | < 30 nM | CNCCN(C)c1ccc(-c2cc(NC[C@@H](C)c3cccc4c(C(=O)NC)ccnc34)ncn2)cn1 [Compound 706]
42 | < 30 nM | [2H]C([2H])([2H])NC(=O)c1ccnc2c([C@H](C)CNc3cc(-c4cnc(C)nc4)ncn3)cccc12 [Compound 654]
43 | < 30 nM | CNC(=O)c1ccnc2c([C@H](C)CNc3cc(-c4ccc5c(c4)CNC5=O)ncn3)cccc12 [Compound 758]
44 | < 30 nM | CNC(=O)c1ccnc2c([C@H](C)CNc3cc(-c4ccc(NCC(=O)N(C)C)nc4)ncn3)cccc12 [Compound 633]
45 | < 30 nM | CNC(=O)c1ccnc2c([C@H](C)CNc3cc(-c4ccc(OC5COC5)cc4)ncn3)cccc12 [Compound 748]
46 | < 30 nM | CCOc1ncc(-c2cc(NC[C@@H](C)c3ccc(F)c4c(C(=O)NC)ccnc34)ncn2)cn1 [Compound 652]
47 | < 30 nM | CNC(=O)c1ccnc2c([C@H](C)CNc3cc(-c4cc(C)nc(OC)c4)ncn3)cccc12 [Compound 863]
48 | < 30 nM | CNC(=O)c1c(NC)cnc2c([C@H](C)CNc3cc(-c4ccc(C)nc4)ncn3)cccc12 [Compound 764]
49 | < 30 nM | CCC(CO)Nc1ccc(-c2cc(NC[C@@H](C)c3cccc4c(C(=O)NC)ccnc34)ncn2)cn1 (some centres unmarked) [Compound 724]
50 | < 30 nM | CNC(=O)c1ccnc2c([C@H](C)CNc3cc(-c4ccc(C(O)C(C)C)nc4)ncn3)ccc(F)c12 (some centres unmarked) [Compound 926]
51 | < 30 nM | CNC(=O)c1ccnc2c([C@H](C)CNc3cc(-c4cnc(N5CCOCC5)c(C)c4)ncn3)cccc12 [Compound 880]
52 | < 30 nM | CCOC(=O)c1cn2c(n1)CN(c1cc(NC[C@@H](C)c3cccc4c(C(=O)NC)ccnc34)ncn1)CC2 [Compound 794]
53 | < 30 nM | CNC(=O)c1ccnc2c([C@H](C)CNc3cc(-c4cnnc(C)c4)ncn3)ccc(F)c12 [Compound 969]
54 | < 30 nM | C[C@H](CNc1cc(-c2cnc3c(cnn3CCO)c2)ncn1)c1cccc2c(C(F)F)c(F)cnc12 [Compound 814]
55 | < 30 nM | CNC(=O)c1ccnc2c([C@H](C)CNc3cc(-c4ccnc(C5CCC5)c4)ncn3)cccc12 [Compound 913]
56 | < 30 nM | CNC(=O)c1ccnc2c([C@H](C)CNc3cc(-c4ccc(NCCNCCO)nc4)ncn3)cccc12 [Compound 707]

Row | Ki | Structure (SMILES)
57 | < 30 nM | CNC(=O)c1ccnc2c([C@H](C)CNc3cc(-c4cnnc(C)c4)ncn3)cccc12 [Compound 841]
58 | < 30 nM | CNC(=O)c1ccnc2c([C@H](C)CNc3cc(-c4ccc(Nc5cnn(CCOC)c5)nc4)ncn3)cccc12 [Compound 737]
59 | < 30 nM | CNC(=O)c1ccnc2c([C@H](C)CNc3cc(-c4ccnc(N5CCC(O)CC5)c4)ncn3)cccc12 [Compound 819]
60 | < 30 nM | CCc1ccc(-c2cc(NC[C@@H](C)c3cccc4c(C(=O)NC)ccnc34)ncn2)cn1 [Compound 789]
61 | < 30 nM | CCNc1ncc(-c2cc(NC[C@@H](C)c3ccc(F)c4c(C(=O)NC)ccnc34)ncn2)cn1 [Compound 931]
62 | < 30 nM | CNC(=O)c1c(F)cnc2c([C@H](C)CNc3cc(-c4csc(-n5cccn5)n4)ncn3)cccc12 [Compound 782]
63 | < 30 nM | CNC(=O)c1ccnc2c([C@H](C)CNc3cc(-c4ccc(NCCc5ccc(C)o5)nc4)ncn3)cccc12 [Compound 738]
64 | < 30 nM | CNC(=O)c1ccnc2c([C@H](C)CNc3cc(-c4ccc(C(=O)NCCO)cc4)ncn3)cccc12 [Compound 753]
65 | < 30 nM | CNC(=O)c1ccnc2c([C@H](C)CNc3cc(-c4ccc(C(=O)N(C)C)s4)ncn3)cccc12 [Compound 777]
66 | < 30 nM | CNC(=O)c1c(F)cnc2c([C@H](C)CNc3cc(-c4cnc(OC5CCC5)nc4)ncn3)cccc12 [Compound 981]
67 | < 30 nM | CNC(=O)c1ccnc2c([C@H](C)CNc3cc(-c4ccc(C5(N)CC5)nc4)ncn3)cccc12 [Compound 939]
68 | < 30 nM | CNC(=O)c1ccnc2c([C@H](C)CNc3cc(-c4cncc(N)c4)ncn3)cccc12 [Compound 874]
69 | < 30 nM | CNC(=O)c1ccnc2c([C@H](C)CNc3cc(-c4ccnc(N)c4)ncn3)cccc12 [Compound 876]
70 | < 30 nM | CNC(=O)c1ccnc2c([C@H](C)CNc3cc(-c4cnc(OC5CCCN(C(=O)OC(C)(C)C)C5)nc4)ncn3)cccc12 (some centres unmarked) [Compound 747]
71 | < 30 nM | CNC(=O)c1ccnc2c([C@H](C)CNc3cc(-c4ccn(C)c(=O)c4)ncn3)cccc12 [Compound 656]
72 | < 30 nM | CNC(=O)c1ccnc2c([C@H](C)CNc3cc(-c4ccc(N5CCOCC5)cc4)ncn3)cccc12 [Compound 678]
73 | < 30 nM | CNC(=O)c1c(F)cnc2c([C@H](C)CNc3cc(-c4cnc5c(c4)COC5)ncn3)cccc12 [Compound 966]
74 | < 30 nM | CNC(=O)c1ccnc2c([C@H](C)CNc3cc(-c4ccc(OC)c(F)c4)ncn3)cccc12 [Compound 823]
